Data on two compounds can be found in ChEMBL document CHEMBL4419172, “Small molecule inhibitors of polynucleotide kinase/phosphatase, poly(ADP-ribose) polymerase and uses thereof” (2017).

Data set [1] can be described thus: Cytotoxicity against human A549 cells assessed as reduction in cell proliferation at 100 uM incubated for 72 hrs by cell-titer 96 aqueous non-radioactive cell proliferation assay. It is filed as cell-based.
A short description of data set [2]: Cytotoxicity against human MDA-MB-231 cells assessed as reduction in cell proliferation at 100 uM incubated for 72 hrs by cell-titer 96 aqueous non-radioactive cell proliferation assay. It is filed as cell-based.
Data set [3] deals with Bifunctional polynucleotide phosphatase/kinase (Mus musculus) (UniProt Q9JLV6). In words: Inhibition of mouse PNKP assessed as reduction in PNKP 3'-phosphatase activity by measuring release of inorganic phosphate at 5 to 50 uM using 5'-TAMRA-tagged 20-mer oligonucleotide as substrate incubated for 30 mins by fluorescence quenching based assay.
Data set [4] has as its system MDA-MB-231. In words: Radiosensitizer activity in human MDA-MB-231 cells assessed as reduction in cell survival at 1 uM pre-incubated for 2 hrs prior to gamma irradiation and further incubated for 24 hrs and measured after 14 days by crystal violet staining based by clonogenic assay relative to control. It is filed as functional.
The subject of data set [5] is A549. Put plainly: Antiproliferative activity against PNKP-depleted and DNA polymerase-beta dominant negative human A549 cells assessed as reduction in cell survival at 1 to 5 uM by MTS assay. It is filed as functional, cell-based.
Data set [6] concerns A549. In words: Cytotoxicity against human A549 cells assessed as reduction in cell proliferation at 1 uM incubated for 72 hrs by cell-titer 96 aqueous non-radioactive cell proliferation assay. Format: cell-based. The settings on record: a549, 72 h.
The next data set concerns the target Aprataxin (Homo sapiens) (UniProt Q7Z2E3). In words: Inhibition of human APTX assessed as reduction in phosphatase activity by measuring release of inorganic phosphate at 50 uM using 5'-TAMRA-tagged 20-mer oligonucleotide as substrate incubated for 30 mins by fluorescence quenching based assay.
Data set [7] can be described thus: Cytotoxicity against human MDA-MB-231 cells assessed as reduction in cell proliferation at >100 uM incubated for 72 hrs by cell-titer 96 aqueous non-radioactive cell proliferation assay. Format: cell-based.
Data set [8] deals with Serine/threonine-protein phosphatase PP1-gamma catalytic subunit (Homo sapiens) (UniProt P36873). Put plainly: Inhibition of human PP-1cgamma expressed in Escherichia coli assessed as reduction in phosphatase activity by measuring release of inorganic phosphate at 83.3 uM using 5'-TAMRA-tagged 20-mer oligonucleotide as substrate incubated for 30 mins by fluorescence quenching based assay.

Data set [9] deals with A549. Put plainly: Radiosensitizer activity in PNKP-depleted human A549 cells assessed as reduction in cell survival at 1 uM pre-incubated for 2 hrs prior to gamma irradiation and further incubated for 24 hrs and measured after 14 days by crystal violet staining based by clonogenic assay relative to control. It is filed as functional.
In data set [10] the test system is A549. Put plainly: Chemosensitizer activity in human A549 cells assessed as reduction in cell survival at 1 uM pre-incubated for 2 hrs prior to camptothecin and further incubated for 24 hrs and measured after 10 to 14 days by crystal violet staining based by clonogenic assay relative to control. Format: functional.
Data set [11] deals with A549. In words: Radiosensitizer activity in human A549 cells assessed as reduction in cell survival at 1 uM pre-incubated for 2 hrs prior to gamma irradiation and further incubated for 24 hrs and measured after 14 days by crystal violet staining based by clonogenic assay relative to control. Format: functional.
Data set [12] has as its system MDA-MB-231. Put plainly: Radiosensitizer activity in PNKP-depleted human MDA-MB-231 cells assessed as reduction in cell survival at 1 uM pre-incubated for 2 hrs prior to gamma irradiation and further incubated for 24 hrs and measured after 14 days by crystal violet staining based by clonogenic assay relative to control. Format: functional.
For data set [13], the species on record is Rattus norvegicus. Put plainly: Inhibition of rat delta-calcineurin expressed in Escherichia coli assessed as reduction in phosphatase activity by measuring release of inorganic phosphate at 83.3 uM using 5'-TAMRA-tagged 20-mer oligonucleotide as substrate incubated for 30 mins by fluorescence quenching based assay.
Data set [14] can be described thus: Cytotoxicity against human A549 cells assessed as reduction in cell proliferation at >100 uM incubated for 72 hrs by cell-titer 96 aqueous non-radioactive cell proliferation assay. Format: cell-based.
Another data set concerns M059J. Put plainly: Antiproliferative activity against human M059J cells expressing non-functional DNA dependent protein kinase assessed as reduction in cell survival at 1 to 5 uM by MTS assay. Format: cell-based. On the technique in general: Formazan colour is commonly taken as a measure of viable cells.
The test system of data set [15] is MDA-MB-231. Put plainly: Cytotoxicity against human MDA-MB-231 cells assessed as reduction in cell proliferation at 1 uM incubated for 72 hrs by cell-titer 96 aqueous non-radioactive cell proliferation assay. Format: cell-based. The settings on record: mda-mb-231, 72 h.
For data set [16], the species on record is Rattus norvegicus. Put plainly: Inhibition of rat delta-calcineurin expressed in Escherichia coli assessed as reduction in phosphatase activity by measuring release of inorganic phosphate using 5'-TAMRA-tagged 20-mer oligonucleotide as substrate incubated for 30 mins by fluorescence quenching based assay.

Structures are written as SMILES. Activity calls are given as the source filed them. The rule behind the calls is not given here. Starred links: 1 amine or outer side, 2 acyl side, 3 side chain; linkers in the order of their positions; H or OH if unused. Positions of bridges follow the written chain, without caps; N, C: chain ends. Non-standard residues stand in square brackets, D forms with d. Residues, ends and D or L forms follow the SMILES beside them. Adda = CO[C@@H](Cc1ccccc1)[C@@H](C)/C=C(C)/C=C/[C@H](N[*:1])[C@H](C)C(=O)[*:2]; dAsp(3S-Me) = C[C@H](C(=O)[*:3])[C@@H](N[*:1])C(=O)[*:2]; d(γGlu) = O=C(O)[C@@H](CCC(=O)[*:2])N[*:1]; NMeDha = C=C(NC)C(=O)O A value given as a limit tells only on which side of the number the result lay.

Chain of Aprataxin (Homo sapiens) (Q7Z2E3 whole entry): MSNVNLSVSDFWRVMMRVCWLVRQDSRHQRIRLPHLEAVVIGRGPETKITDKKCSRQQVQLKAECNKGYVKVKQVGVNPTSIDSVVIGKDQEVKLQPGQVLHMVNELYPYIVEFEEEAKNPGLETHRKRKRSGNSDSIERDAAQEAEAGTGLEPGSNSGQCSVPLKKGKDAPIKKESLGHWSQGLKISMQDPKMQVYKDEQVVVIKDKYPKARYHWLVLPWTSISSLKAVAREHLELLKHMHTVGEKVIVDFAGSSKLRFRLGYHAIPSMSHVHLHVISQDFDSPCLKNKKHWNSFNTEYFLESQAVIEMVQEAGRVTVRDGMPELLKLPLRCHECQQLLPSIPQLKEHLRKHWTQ
Chain of Bifunctional polynucleotide phosphatase/kinase (Mus musculus) (Q9JLV6 whole entry): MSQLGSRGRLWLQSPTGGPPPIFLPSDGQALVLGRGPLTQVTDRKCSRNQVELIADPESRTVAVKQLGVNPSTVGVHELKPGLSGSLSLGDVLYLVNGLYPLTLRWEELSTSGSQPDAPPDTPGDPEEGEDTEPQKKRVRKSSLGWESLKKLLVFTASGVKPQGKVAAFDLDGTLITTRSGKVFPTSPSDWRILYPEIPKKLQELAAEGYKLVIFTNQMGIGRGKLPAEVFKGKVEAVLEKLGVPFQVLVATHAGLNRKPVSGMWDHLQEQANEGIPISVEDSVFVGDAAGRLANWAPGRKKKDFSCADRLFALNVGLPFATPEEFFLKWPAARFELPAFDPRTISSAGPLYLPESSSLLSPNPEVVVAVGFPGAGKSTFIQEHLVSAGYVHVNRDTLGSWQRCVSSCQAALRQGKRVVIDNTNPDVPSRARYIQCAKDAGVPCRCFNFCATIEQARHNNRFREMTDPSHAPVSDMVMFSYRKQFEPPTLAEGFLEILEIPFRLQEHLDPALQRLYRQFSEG
Chain of Serine/threonine-protein phosphatase PP1-gamma catalytic subunit (Homo sapiens) (P36873 2-323 limits assumed): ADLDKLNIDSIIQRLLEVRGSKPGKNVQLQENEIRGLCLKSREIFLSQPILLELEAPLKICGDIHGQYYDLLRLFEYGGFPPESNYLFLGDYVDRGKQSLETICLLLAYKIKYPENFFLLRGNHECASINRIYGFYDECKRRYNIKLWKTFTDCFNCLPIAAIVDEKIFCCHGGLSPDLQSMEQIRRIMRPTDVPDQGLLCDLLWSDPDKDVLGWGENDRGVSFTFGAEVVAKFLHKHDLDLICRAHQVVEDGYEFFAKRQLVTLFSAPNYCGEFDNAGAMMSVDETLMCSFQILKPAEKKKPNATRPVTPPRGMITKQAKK

For orientation: inhibition means the change of the read-out against control, counted positive when it falls. `CCCCCCCCCCC(O)C1C=CC2C(=O)N(c3ccccc3)C(=O)C2N1Nc1ccc([N+](=O)[O-])cc1` (stereo not drawn): the inhibition at 72 h, 100 µM in data set [1] and in data set [2] was at most 50% throughout. Moreover, the inhibition result in data set [3] was “Active”. For the same compound, the result in the data set with MDA-MB-231 [4], in the data set with A549 [5] and in the data set with A549 [10] was Active. Besides, the Activity entry with A549 [6] and in the data set with MDA-MB-231 [15] was “Non-Toxic” in each case. Besides, the inhibition entry (on Aprataxin (Homo sapiens); in data set [8]; in the data set listed under Rattus norvegicus [13]) was “inactive” each time. The inhibition at 72 h in [7] and in [14] was at most 50% in each case. The outcome with A549 [9], in the data set with MDA-MB-231 [12] and in the data set with M059J was inactive. Besides, the “fold change (FC)” value in the data set on A549 [11] worked out at 2.
Regarding `C=C1C(=O)N[C@H](C)C(=O)N[C@@H](CC(C)C)C(=O)N[C@@H](C(=O)O)[C@H](C)C(=O)N[C@@H](CCCNC(=N)N)C(=O)N[C@@H](/C=C/C(C)=C/[C@H](C)[C@H](Cc2ccccc2)OC)[C@H](C)C(=O)N[C@@H](C(=O)O)CCC(=O)N1C` (R[Adda][d(γGlu)][NMeDha][dA]L[dAsp(3S-Me)]-OH; lactam N-7), the inhibition result in the data set listed under Rattus norvegicus [16] is “Active”.
